From patent US20230257383A1, “COMPOUND SERVING AS BTK INHIBITOR, PREPARATION METHOD THEREFOR, AND USE THEREOF” (CHENGDU HYPERWAY PHARMACEUTICALS CO., LTD., priority 2020, published 2023)
Read-outs that look alike come from different tables or passages of the source.

Key:
BT474 cell proliferation = assay: In vitro cell proliferation inhibitory activity test (CTG), BT474; type: cell-based; conditions: Homo sapiens, BT-474, BT474 cell proliferation
Protocol: (§1) Test Example 4: In Vitro Cell Proliferation Inhibitory Activity Test
(§2) Cells were cultured in 1640 medium, added with 10% inactivated FBS and 1% double antibiotics, and cultured at 37° C. and 5% CO2.
(§3) (1) Cells were routinely cultured until the cell density was 80%-90%, and the cells were harvested when their number reached the requirement.
(§4) (2) Cells were resuspended with corresponding culture medium, counted, and prepared into cell suspension at appropriate density.
(§5) (3) The cell suspension was added to a 96-well plate, 100 μL per well.
(§6) (4) Cells were cultured overnight in a 37° C., 5% CO2 incubator.
(§7) (1) The compounds to be tested were diluted with DMSO to make a stock solution with a final concentration of 20 mM for later use.
(§8) (2) The stock solution was diluted 10 times from 20 mM to 2 mM with DMSO, and then diluted 3 times from 2 mM to 9 concentrations.
(§9) (3) The blank control wells were cells plus 0.5% DMSO, as high-reading control wells.
(§10) (4) Wells with no cells and only medium were used as low-reading control wells.
(§11) 4: Cell treatment with compound
(§12) (1) 24 h after the cells were plated, the compounds acted alone, and 99 μL of growth medium was added to each well, followed by 1 μL of the compound prepared in step 3. The plate was shaken gently to mix uniformly, and then placed in a 37° C., 5% CO2 incubator.
(§13) (2) The cell plate was placed in an incubator for 72 h.
(§14) 5: Detection by CTG method
(§15) (1) The cell plate to be tested was placed at room temperature for 30 min, and 100 μL of medium was discarded from each well.
(§16) (2) 100 μL of CTG reagent (CelltiterGlo kit) was added to each well, placed on a fast shaker for 2 min, and stood at room temperature in the dark for 30 min.
(§17) (3) The chemiluminescent signal value was read with the Envision instrument.
(§18) IC50 was calculated by using GraphPad Prism 8 software. The IC50 (half inhibitory concentration) of the compound was derived using the following nonlinear fitting formula, and the results are shown in the following table:
(§19) Y=Bottom+(Top−Bottom)/(1+10^((Log IC50−X)×HillSlope))
(§20) X: log value of compound concentration, Y: inhibition rate (% inhibition)
(§21) Inhibition rate (% inhibition)=(reading of high-reading control well-reading of compound well)/(reading of high-reading control well-reading of low-reading control well)×100

[1] = test system: NCI-N87 cell proliferation; assay: In vitro cell proliferation inhibitory activity test (CTG), NCI-N87; type: cell-based; conditions: Homo sapiens
Protocol: as §1, §2, §3, §4, §5, §6, §7, §8, §9, §10, §11, §12, §13, §14, §15, §16, §17, §18, §19, §20, §21

[2] = Blood-brain barrier permeability test, oral, SD rats; type: in vivo; conditions: rat, oral 10 mg/kg single dose; for concentration at 1 h / Kp at 1 h: time point 1 h; for concentration at 4 h / Kp at 4 h: time point 4 h
Protocol: Test Example 6: Blood-Brain Barrier Permeability Test
Each test compound was administered orally at a single dose of 10 mg/kg to SD rats for pharmacokinetic study. Each group included 9 rats. The test compound was dissolved in 5% DMSO+10% solutol+85% saline, vortexed for 1-2 min, and ultrasonicated for 5-10 min to prepare into a colorless, transparent and clear administration solution. Animals were fasted overnight before administration. 1 h, 2 h, and 4 h after administration, three SD rats were selected from each group to take about 0.2-0.3 mL of blood through their orbit. The blood sample was placed on ice once collected, and centrifuged to separate the plasma within 15 min (centrifugation conditions: 8000 rpm, 1 min, room temperature). The collected plasma was stored at −20° C. before analysis. Immediately after blood collection, the cerebrospinal fluid and brain tissue were collected. The cerebrospinal fluid was draw out by dural puncture with a micro-sampler syringe under direct vision. Namely, about 100 μl of cerebrospinal fluid was collected with a 100 μl micro sample syringe from the rat that was anesthetized by chloral hydrate, with the head-fixed, the back hair-cut off, a transverse incision (2 cm) made at the line connecting the roots of the two ears, and the muscle layer of the neck and skull base bluntly scraped to expose the foramen magnum. The cerebrospinal fluid was stored at −20° C. before analysis. The rat then was sacrificed immediately, with its head cut off. The dissected brain tissue, with the surface capillaries peeled off, was weighed, added with 3 times the amount of cold saline, homogenized by a homogenizer for 1 min, and stored at −20° C. before analysis. 20 μL of plasma sample and brain homogenate sample was respectively added into 200 μL of working internal standard solution (the same volume of vehicle was added to the blank instead of internal standard), vortexed for 1 min, and centrifuged at 13500 rpm for 10 min. 100 μL of the supernatant was taken and analyzed by LC-MS/MS. 20 μL of the cerebrospinal fluid was added into 60 μL of working internal standard solution (the same volume of vehicle, instead of internal standard, was added to the blank), vortexed for 1 min, and centrifuged at 13500 rpm for 10 min. 50 μL of the supernatant was taken and analyzed by LC-MS/MS.

HER2 kinase = HER2 kinase (Homo sapiens, UniProt P04626); assay: HER2 kinase activity test (HTRF); type: biochemical
Sequence of HER2 kinase (P04626 23-1255): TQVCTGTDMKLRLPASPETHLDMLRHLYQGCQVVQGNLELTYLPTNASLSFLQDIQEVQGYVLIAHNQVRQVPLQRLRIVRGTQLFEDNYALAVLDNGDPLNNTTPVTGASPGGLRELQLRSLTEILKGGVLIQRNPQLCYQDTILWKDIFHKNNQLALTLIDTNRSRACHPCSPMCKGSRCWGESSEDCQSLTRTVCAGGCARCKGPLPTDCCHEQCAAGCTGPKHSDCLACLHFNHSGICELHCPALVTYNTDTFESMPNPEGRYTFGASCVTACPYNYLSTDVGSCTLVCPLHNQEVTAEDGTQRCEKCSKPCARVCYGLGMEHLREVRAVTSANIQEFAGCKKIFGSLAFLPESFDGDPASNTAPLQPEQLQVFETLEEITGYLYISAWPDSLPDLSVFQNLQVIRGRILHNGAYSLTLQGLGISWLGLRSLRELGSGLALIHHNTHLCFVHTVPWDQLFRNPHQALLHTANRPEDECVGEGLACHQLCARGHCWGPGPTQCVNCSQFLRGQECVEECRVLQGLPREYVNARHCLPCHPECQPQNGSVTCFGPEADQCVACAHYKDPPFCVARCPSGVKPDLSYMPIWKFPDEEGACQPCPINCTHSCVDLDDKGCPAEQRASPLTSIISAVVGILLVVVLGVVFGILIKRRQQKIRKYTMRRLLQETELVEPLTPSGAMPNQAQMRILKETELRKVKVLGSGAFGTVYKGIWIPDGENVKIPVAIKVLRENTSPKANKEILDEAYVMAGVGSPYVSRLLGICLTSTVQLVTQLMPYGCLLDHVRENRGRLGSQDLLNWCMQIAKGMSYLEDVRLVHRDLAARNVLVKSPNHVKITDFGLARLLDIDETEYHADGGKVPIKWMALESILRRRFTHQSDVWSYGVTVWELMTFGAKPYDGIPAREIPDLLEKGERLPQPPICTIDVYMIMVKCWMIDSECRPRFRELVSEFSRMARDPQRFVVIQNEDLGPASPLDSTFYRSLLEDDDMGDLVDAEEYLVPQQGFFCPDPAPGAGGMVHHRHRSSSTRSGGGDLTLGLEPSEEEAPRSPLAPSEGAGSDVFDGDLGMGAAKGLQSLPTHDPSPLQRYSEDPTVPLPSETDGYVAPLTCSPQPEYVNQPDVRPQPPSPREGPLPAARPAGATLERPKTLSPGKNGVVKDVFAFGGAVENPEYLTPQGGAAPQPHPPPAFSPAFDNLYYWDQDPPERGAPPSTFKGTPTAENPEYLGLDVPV
Protocol: Test Example 5: HER2 Kinase Activity Test
1. Her2 Kinase test steps
2) 100 nl of the diluted compound working solution was transferred into each well of a reaction plate (784075, Greiner) by an Echo 550 liquid hander. The reaction plate was sealed with a sealing film and centrifuged at 1000 g for 1 min.
3) 1 ng/μL Her2 kinase solution was prepared with 1× kinase reaction buffer.
4) 5 μL of the kinase solution prepared above was added to each well of the reaction plate. The plate was sealed with a sealing film, centrifuged at 1000 g for 1 min, and placed at room temperature for 10 min.
5) A mixture of 2× kinase substrate and ATP was prepared by using 1× kinase reaction buffer, and the 2× Her2 kinase substrate was 2 μM TK-substrate-biotin and 4 μM ATP
6) 5 μL of the mixture of 2× TK-substrate-biotin and ATP was added to the reaction plate, centrifuged at 1000 g for 30 seconds to start the reaction.
7) Her2 kinase test was performed at room temperature for 50 min of reaction.
9) 10 μL of the mixture of Sa-XL 665 and TK-antibody-Cryptate was added to each well, centrifuged at 1000 g for 30 seconds, and reacted at room temperature for 1 h.
10) The fluorescence signals at 615 nm (Cryptate) and 665 nm (XL665) were read by Envision 2104.
1) The percentage inhibition was calculated as follows: […]
Ratiopositive control: average value of Ratio 665/615 nm of all positive control wells in the plate.
Rationegative control: average value of Ratio 665/615 nm of all negative control wells in the plate.
2) Calculation of IC50 and fitting of dose-effect curve of compound:
The IC50 of the compound was derived using the following nonlinear fitting formula with GraphPad 6.0.
Y=Bottom+(Top−Bottom)/(1+10^((Log IC50−X)×HillSlope)).
X: log value of compound concentration; Y: percentage inhibition of compound

DOHH2 cell proliferation = assay: In vitro cell proliferation inhibitory activity test (CTG), DOHH2; type: cell-based; conditions: Homo sapiens, DOHH-2
Protocol: as §1, §2, §3, §4, §5, §6, §7, §8, §9, §10, §11, §12, §13, §14, §15, §16, §17, §18, §19, §20, §21

[3] = Liver microsome metabolic stability test (rat); type: in vitro ADME; conditions: liver microsomes, read-out: CLint (μL/min/mg) Rat
Protocol: (§22) 1: To the sample wells of T0, T5, T10, T20, T30, T60 and NCF60, 10 μL of the test or reference working solution and 80 μL of microsome working solution (hepatic microsome with a protein concentration of 0.5 mg/mL) were added, and to Blank60 well, only the microsome working solution was added. Then samples of the Blank60, T5, T10, T20, T30 and T60 other than TO and NCF60 were placed in a 37° C. water bath and pre-incubated for about 10 min.
(§23) 2: To the TO sample well, 300 μL of stop solution (containing 200 ng/mL tolbutamide and 200 ng/mL labetalol in acetonitrile solution) was added first, followed by 10 μL of NADPH regeneration system working solution.
(§24) 3: After the pre-incubation of Blank60, T5, T10, T20, T30 and T60 incubation plates, 10 μL of NADPH regeneration system working solution was added to each sample well to start the reaction, and 10 μL of 100 mM potassium phosphate buffer was added to the NCF60 sample well.
(§25) 4: After incubation for an appropriate time (such as 5, 10, 20, 30 and 60 min), to each test sample well and control well of the Blank60, T5, T10, T20, T30, T60 and NCF60 plates, 300 μL of stop solution was added to terminate the reaction.
(§26) 5: All sample plates were shaken to mix well and centrifuged at 4000 rpm for 20 min, and 100 μL of the supernatant of the test sample or control sample was taken and diluted with 300 μL of pure water for LC-MS/MS analysis.
(§27) 6: Data analysis: T1/2 and CLint(mic) (μL/min/mg) values were calculated according to the first-order elimination kinetics. The first-order elimination kinetics equation was: […]

TMD8 cell proliferation = assay: In vitro cell proliferation inhibitory activity test (CTG), TMD8; type: cell-based; conditions: Homo sapiens, TMD8, 72 h, TMD8 cells
Protocol: as §1, §2, §3, §4, §5, §6, §7, §8, §9, §10, §11, §12, §13, §14, §15, §16, §17, §18, §19, §20, §21

[4] = Liver microsome metabolic stability test (human); type: in vitro ADME; conditions: liver microsomes, read-out: CLint (μL/min/mg) Human
Protocol: as §22, §23, §24, §25, §26, §27

[5] = brain, read-out: Drug concentration in brain tissue
[6] = brain/plasma, read-out: Brain tissue/plasma
[7] = cerebrospinal fluid, read-out: Drug concentration in cerebrospinal fluid
[8] = cerebrospinal fluid/plasma, read-out: Cerebrospinal fluid/plasma
[9] = plasma, read-out: Plasma drug concentration

Row | IC50 (BT474 cell proliferation) [nM] | concentration at 1 h [2, 5] [ng/g] | concentration at 4 h [2, 5] [ng/g] | Kp at 1 h [2, 6] | Kp at 4 h [2, 6] | concentration at 1 h [2, 7] [ng/mL] | concentration at 4 h [2, 7] [ng/mL] | Kp at 1 h [2, 8] | Kp at 4 h [2, 8] | concentration at 1 h [2, 9] [ng/mL] | concentration at 4 h [2, 9] [ng/mL] | IC50 (HER2 kinase) [nM] | microsomal CLint [3] [µL/min/mg] | concentration at 2 h ([2]; brain, time point 2 h, read-out: Drug concentration in brain tissue) [ng/g] | Kp at 2 h ([2]; brain/plasma, time point 2 h, read-out: Brain tissue/plasma) | concentration at 2 h ([2]; plasma, time point 2 h, read-out: Plasma drug concentration) [ng/mL] | microsomal CLint [4] [µL/min/mg] | Structure (SMILES) | IC50 [1] [nM] | IC50 (DOHH2 cell proliferation) [nM] | IC50 (TMD8 cell proliferation) [nM]
1 | 153 |  |  |  |  |  |  |  |  |  |  |  |  |  |  |  |  | Nc1nccn2c(C34CCC(CO)(CC3)OC4)nc(-c3ccc(C(F)(F)c4cccc(F)c4)cc3)c12 [Example 142] | 106 |  | 
2 | 86.9 | 296 | 410 | 0.78 | 1.1 | 27.4 | 34.3 | 0.072 | 0.092 | 380 | 373 | 3.92 |  |  |  |  |  | Nc1nccn2c(C34CCC(CO)(CC3)OC4)nc(-c3ccc(C(F)(F)c4cccc(F)c4Cl)cc3)c12 [Example 146] | 82 |  | 
3 |  | 84 | 13.3 | 0.118 | 0.054 |  |  |  |  | 713 | 226 |  | 32.9 | 31.1 | 0.06 | 515 | 13.1 | CC#CC(=O)N1CC[C@@H](n2c(=O)n(-c3ccc(Oc4ccccc4)cc3)c3c(N)ncnc32)C1 [Tirabrutinib, reference compound] |  | 8090 | 158
